In ChEMBL document CHEMBL2380242, “Discovery of novel orally bioavailable GPR40 agonists” (Bioorg Med Chem Lett, 2013):
Activity calls are given as the source filed them. The calls are words filed in the database; no cut-off is given here.

Experiments:
Mus musculus = assay: Antidiabetic activity in high fat feasted ICR mouse assessed as reduction of blood glucose excursion at 50 mg/kg, po administered 15 mins prior to dextrose challenge measured for 120 mins by OGTT; format: functional, organism-based; parameters: dose 50 mg/kg
[1] = target: T1, Free fatty acid receptor 1 (Homo sapiens, UniProt O14842); assay: Agonist activity at human GPR40 transfected in CHO cells by calcium flux assay relative to TAK-875; format: functional, cell-based
T1 sequence (O14842 whole entry): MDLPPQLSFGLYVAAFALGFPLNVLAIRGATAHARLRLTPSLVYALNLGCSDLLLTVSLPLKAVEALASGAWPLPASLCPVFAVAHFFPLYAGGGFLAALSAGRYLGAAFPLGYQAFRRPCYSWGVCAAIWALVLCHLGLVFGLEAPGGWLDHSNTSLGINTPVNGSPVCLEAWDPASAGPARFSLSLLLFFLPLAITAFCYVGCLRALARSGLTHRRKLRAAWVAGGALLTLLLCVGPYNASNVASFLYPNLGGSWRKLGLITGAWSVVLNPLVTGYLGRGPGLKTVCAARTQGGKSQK

[2] = target: T1, Free fatty acid receptor 1; assay: Agonist activity at human GPR40 transfected in CHO cells by calcium flux assay; format: functional, cell-based

| SMILES | Activity (Mus musculus) | Emax [1] [%] | EC50 [2] [nM] |
| --- | --- | --- | --- |
| Cc1cc(OCCCS(C)(=O)=O)cc(C)c1-c1ccc(F)c([C@H]2COc3cc4c(cc3O2)OC[C@H]4CC(=O)O)c1 | Active | 83 | 67.5 |
| O=C(O)C[C@@H]1COc2cc3c(cc21)OCC(c1cccc(-c2ccccc2C(F)(F)F)c1)O3 (stereo partly drawn) | – | 104 | 74.5 |
| Cc1cc(OCCCS(C)(=O)=O)cc(C)c1-c1ccc(F)c([C@@H]2COc3cc4c(cc3O2)OC[C@H]4CC(=O)O)c1 | inactive | 87 | 46.5 |
| O=C(O)C[C@@H]1COc2cc3c(cc21)OCC(c1cccc(-c2ccccc2F)c1)O3 (stereo partly drawn) | – | 115 | 73.2 |
| Cc1ccc(C)c(-c2cccc(C3COc4cc5c(cc4O3)OC[C@H]5CC(=O)O)c2)c1 (stereo partly drawn) | – | 89 | 88 |
| Cc1cc(C)c(-c2cccc(C3COc4cc5c(cc4O3)OC[C@H]5CC(=O)O)c2)c(C)c1 (stereo partly drawn) | – | 103 | 61.6 |
| O=C(O)C[C@@H]1COc2cc3c(cc21)OCC(c1cccc(Br)c1)O3 (stereo partly drawn) | – | 89 | 54.7 |
| CS(=O)(=O)CCCOc1ccc(-c2cccc([C@H]3COc4cc5c(cc4O3)OC[C@H]5CC(=O)O)c2)c(Cl)c1 | – | 71 | 145 |
| CS(=O)(=O)CCCOc1ccc(-c2cc(C3COc4cc5c(cc4O3)OC[C@H]5CC(=O)O)ccc2F)c(Cl)c1 (stereo partly drawn) | – | 66 | 125 |
| CS(=O)(=O)CCCOc1ccc(-c2ccc(F)c(C3COc4cc5c(cc4O3)OC[C@H]5CC(=O)O)c2)c(Cl)c1 (stereo partly drawn) | – | 102 | 56.2 |
| Cc1cc(C)cc(-c2cccc(C3COc4cc5c(cc4O3)OC[C@H]5CC(=O)O)c2)c1 (stereo partly drawn) | – | 68 | 132 |
| O=C(O)C[C@@H]1COc2cc3c(cc21)OCC(c1cc(F)cc(Br)c1)O3 (stereo partly drawn) | – | 38 | 105 |
| Cc1cc(OCCCS(C)(=O)=O)cc(C)c1-c1cccc([C@H]2COc3cc4c(cc3O2)OC[C@H]4CC(=O)O)c1 | – | 111 | 282 |
| O=C(O)C[C@@H]1COc2cc3c(cc21)OCC(c1cc(F)cc(C(F)(F)F)c1)O3 (stereo partly drawn) | – | 79 | 63.7 |
| Cc1cc(OCCCS(C)(=O)=O)ccc1-c1cccc(C2COc3cc4c(cc3O2)OC[C@H]4CC(=O)O)c1 (stereo partly drawn) | – | 53 | 123 |
| O=C(O)C[C@@H]1COc2cc3c(cc21)OC[C@@H](c1cccc(-c2ccccc2Cl)c1)O3 | – | 99 | 66.7 |
| Cc1cc(F)ccc1-c1cccc(C2COc3cc4c(cc3O2)OC[C@H]4CC(=O)O)c1 (stereo partly drawn) | – | 77 | 35.9 |
| O=C(O)C[C@@H]1COc2cc3c(cc21)OC[C@H](c1cccc(-c2ccccc2Cl)c1)O3 (mixture of isomers) | – | 97 | 56.7 |
